From PubChem BioAssay (NCI)
Where “and” joins values, the source holds several entries; their conditions need not be identical. Identical values can stand only once.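 Five compound concentrations were applied to cells in 96-well plates for 48 hours; endpoints were derived by simple linear interpolation of the resulting dose-response curve. TGI: total growth inhibition.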

How the values were obtained:
Assay in all cases: growth of human tumour cells (NCI), 48 h
MDA-MB-435 = tested on: MDA-MB-435
SF-539 CNS = tested on: SF-539 CNS
A549 NSCLC = tested on: A549 NSCLC
OVCAR-8 ovarian = tested on: OVCAR-8 ovarian
EKVX NSCLC = tested on: EKVX NSCLC
MALME-3M melanoma = tested on: MALME-3M melanoma
M14 melanoma = tested on: M14 melanoma
U251 CNS = tested on: U251 CNS
OVCAR-3 ovarian = tested on: OVCAR-3 ovarian
NCI-H23 lung = tested on: NCI-H23 lung
HOP-92 NSCLC = tested on: HOP-92 NSCLC
SK-MEL-5 melanoma = tested on: SK-MEL-5 melanoma
NCI/ADR-RES ovarian = tested on: NCI/ADR-RES ovarian
K-562 leukemia = tested on: K-562 leukemia
RPMI-8226 leukemia = tested on: RPMI-8226 leukemia

Structure (SMILES)	TGI (MDA-MB-435) [µM]	TGI (SF-539 CNS) [µM]	TGI (A549 NSCLC) [µM]	TGI (OVCAR-8 ovarian) [µM]	TGI (EKVX NSCLC)	TGI (MALME-3M melanoma) [µM]	TGI (M14 melanoma) [µM]	TGI (U251 CNS) [µM]	TGI (OVCAR-3 ovarian) [µM]	TGI (NCI-H23 lung) [µM]	TGI (HOP-92 NSCLC) [µM]	TGI (SK-MEL-5 melanoma) [µM]	TGI (NCI/ADR-RES ovarian) [µM]	TGI (K-562 leukemia)	TGI (RPMI-8226 leukemia) [µM]
CCOC(=O)Cc1ccc(Nc2nc3cc(C(F)(F)F)ccc3nc2C(=O)OCC)cc1	> 100	55.3	> 100	> 100	> 100 µM	> 100	> 100	> 100	> 100	> 100	> 100	> 100	> 100		
Cc1cc(S(=O)(=O)Nc2nc(N)n(-c3cnc4ccccc4n3)n2)c(S)cc1Cl	> 100	> 100	> 100	> 100	> 100 µM	> 100	> 100	> 100	> 100		89.2	> 100	> 100	> 100 µM	
CCCSc1cc(Cl)c(C)cc1S(=O)(=O)n1cc[nH]c1=O	> 100	> 100	> 100	> 100	> 100 µM	> 100	> 100	> 100	> 100	> 100		> 100	> 100	> 100 µM	
CN(C(=O)OC(C)(C)C)[C@H]1CCCC[C@H]1N1CCCC1	> 100	> 100	> 100	> 100	> 100 µM	> 100	> 100	> 100	> 100	> 100		> 100	> 100	> 100 µM	> 100
CS(=O)(=O)c1nc(N)nc2nc[nH]c12		> 100	> 100	> 100	> 100 µM		> 100	> 100	> 100	> 100	> 100	> 100		> 100 µM	> 100
O=C(O)C(Cc1cccs1)NC(=O)C(F)(F)F (stereo unspecified)		> 100	> 100	> 100	> 100 µM	> 100		> 100	> 100	> 100	> 100	> 100	> 100	> 100 µM	> 100
C1COC2SC3=C(SC(=C4SC5=C(SCCS5)S4)S3)SC2O1 (stereo unspecified)	> 100	> 100	> 100	> 100	> 100 µM	> 100	> 100	> 100	> 100	> 100	> 100	> 100	> 100	> 100 µM	
Cc1nnc(Nc2ccc(Cl)cc2)o1	> 10	> 10	> 10	> 10	> 10 µM	> 10	> 10	> 10	> 10	> 10		> 10	> 10	> 10 µM	
CN(C)CCOc1cc2c(c3ccccc13)-c1ccccc1C2=O		3.27	22	3.23	18.5 µM	5.15		6.58	4.99	5.24	4.25	2.96	2.64	4.7 µM	4.27
CC1(C)S[C@@H]2[C@H](NC(=O)CCC[C@@H](N)C(=O)O)C(=O)N2[C@H]1C(=O)O		> 50	> 50	> 19.9	> 50 µM	> 50		> 28.4	> 50	> 50	> 50	> 21.6	> 31.6	> 50 µM	> 50
CC1=CC(C)C(C)N(CCNC(=O)Nc2ccccc2)c2ccccc21 (stereo unspecified)	75.1	68.3	55.7	54.3	76.3 µM	70.2	70		51.2	49.1		27.8	67.9	> 100 µM	51.8
O=[N+]([O-])C(/C(Cl)=C(/Cl)N1CCCCC1)=C1\NCCO1	> 100	> 100	> 100	> 100	> 100 µM	> 100	> 100	> 100	> 100	> 100			> 100		> 100
CC(C)(C)CN1[C@@H]2CCCC[C@H]2N(CC(C)(C)C)P1(=O)Cc1ccccc1	32.7	31.6	24.1	27.7	27.4 µM	26.3	26.3	26.5	23.5	26.2		24.8	27.1	28.2 µM	
Cc1c(O)c(OC2OC(CO)C(O)C(O)C2O)cc2c1CC[C@@H]1C2(C)C(=O)C[C@]2(C)[C@@H]([C@@](C)(O)C(O)/C=C/C(C)(C)O)[C@H](O)C[C@@]12C (stereo partly specified)	> 100	> 100	> 100	> 100	> 100 µM	> 100	> 100	> 100	> 100	> 100	> 100	> 100	> 100	> 100 µM	
CCC1(O)CC(OC2CC(N(C)C)C(OC3CC(O)C(OC4OC(C)C(=O)C=C4N)C(C)O3)C(C)O2)c2c(O)c3c(c(O)c2C1C(=O)OC)C(=O)c1cccc(O)c1C3=O (stereo unspecified)	0.107	0.236		0.261	0.351 µM and 0.0968 µM	0.0947	0.0268	1.08	0.15	0.036	1.67	0.0659		0.125 µM and 0.0234 µM	0.0858
COc1ccc(-c2oc3c(CC(=O)O)cccc3c(=O)c2OC)cc1	> 100	> 100	> 100	> 100	> 100 µM	> 100	> 100	> 100	> 100	> 100		> 100	> 100	> 100 µM	
CC(=O)O[C@H]1C(=O)[C@@]2(C)C(C(OC(=O)c3ccccc3)[C@]3(O)CC(OC(=O)C(O)C(NC(=O)c4ccccc4)c4ccc(F)cc4)C(C)=C1C3(C)C)[C@]1(OC(C)=O)CO[C@@H]1C[C@@H]2O (stereo partly specified)		0.00307	> 10	> 10	> 10 µM		> 7.03	> 10		> 10	> 10	> 3.32	> 4.04	> 10 µM	2.09
